Assays:
Type in all cases: functional, cell-based
Estrogen receptor = Estrogen receptor (Homo sapiens, UniProt Q92731+P03372); assay: Antagonistic activity against Estrogen receptor in co-transfected CV-1 cell
[1] = biological target: T1, Glucocorticoid receptor (Homo sapiens) (UniProt P04150); assay: (§1) Antagonistic activity against Glucocorticoid receptor in co-transfected CV-1 cell
T1 sequence (whole entry): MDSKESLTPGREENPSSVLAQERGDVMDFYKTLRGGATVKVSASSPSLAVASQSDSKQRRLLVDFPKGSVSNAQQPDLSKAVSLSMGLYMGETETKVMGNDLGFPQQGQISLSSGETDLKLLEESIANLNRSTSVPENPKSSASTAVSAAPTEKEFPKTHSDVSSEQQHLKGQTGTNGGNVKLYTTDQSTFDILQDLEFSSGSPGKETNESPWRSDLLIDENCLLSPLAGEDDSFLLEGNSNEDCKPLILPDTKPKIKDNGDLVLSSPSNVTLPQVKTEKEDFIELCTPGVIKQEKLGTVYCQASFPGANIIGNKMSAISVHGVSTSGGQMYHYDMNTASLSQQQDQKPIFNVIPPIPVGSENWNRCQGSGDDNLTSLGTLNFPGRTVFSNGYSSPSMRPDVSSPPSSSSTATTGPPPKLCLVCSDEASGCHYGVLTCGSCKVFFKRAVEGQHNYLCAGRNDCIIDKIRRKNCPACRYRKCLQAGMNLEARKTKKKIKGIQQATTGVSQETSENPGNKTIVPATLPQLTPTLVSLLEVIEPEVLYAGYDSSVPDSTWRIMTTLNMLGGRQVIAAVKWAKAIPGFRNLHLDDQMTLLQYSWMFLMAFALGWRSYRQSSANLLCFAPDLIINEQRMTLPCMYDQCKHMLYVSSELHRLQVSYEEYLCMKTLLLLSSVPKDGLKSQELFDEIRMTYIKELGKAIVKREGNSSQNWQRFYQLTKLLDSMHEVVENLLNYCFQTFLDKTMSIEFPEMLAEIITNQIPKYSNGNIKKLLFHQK

Glucocorticoid receptor = biological target: T2, Glucocorticoid receptor (Homo sapiens, UniProt P04150); assay: as §1
T2 sequence (P04150 whole entry): T1 sequence (whole entry)

[2] = biological target: T3, Mineralocorticoid receptor (Homo sapiens) (UniProt P08235); assay: Antagonistic activity against hMR in co-transfected CV-1 cell
T3 sequence (whole entry): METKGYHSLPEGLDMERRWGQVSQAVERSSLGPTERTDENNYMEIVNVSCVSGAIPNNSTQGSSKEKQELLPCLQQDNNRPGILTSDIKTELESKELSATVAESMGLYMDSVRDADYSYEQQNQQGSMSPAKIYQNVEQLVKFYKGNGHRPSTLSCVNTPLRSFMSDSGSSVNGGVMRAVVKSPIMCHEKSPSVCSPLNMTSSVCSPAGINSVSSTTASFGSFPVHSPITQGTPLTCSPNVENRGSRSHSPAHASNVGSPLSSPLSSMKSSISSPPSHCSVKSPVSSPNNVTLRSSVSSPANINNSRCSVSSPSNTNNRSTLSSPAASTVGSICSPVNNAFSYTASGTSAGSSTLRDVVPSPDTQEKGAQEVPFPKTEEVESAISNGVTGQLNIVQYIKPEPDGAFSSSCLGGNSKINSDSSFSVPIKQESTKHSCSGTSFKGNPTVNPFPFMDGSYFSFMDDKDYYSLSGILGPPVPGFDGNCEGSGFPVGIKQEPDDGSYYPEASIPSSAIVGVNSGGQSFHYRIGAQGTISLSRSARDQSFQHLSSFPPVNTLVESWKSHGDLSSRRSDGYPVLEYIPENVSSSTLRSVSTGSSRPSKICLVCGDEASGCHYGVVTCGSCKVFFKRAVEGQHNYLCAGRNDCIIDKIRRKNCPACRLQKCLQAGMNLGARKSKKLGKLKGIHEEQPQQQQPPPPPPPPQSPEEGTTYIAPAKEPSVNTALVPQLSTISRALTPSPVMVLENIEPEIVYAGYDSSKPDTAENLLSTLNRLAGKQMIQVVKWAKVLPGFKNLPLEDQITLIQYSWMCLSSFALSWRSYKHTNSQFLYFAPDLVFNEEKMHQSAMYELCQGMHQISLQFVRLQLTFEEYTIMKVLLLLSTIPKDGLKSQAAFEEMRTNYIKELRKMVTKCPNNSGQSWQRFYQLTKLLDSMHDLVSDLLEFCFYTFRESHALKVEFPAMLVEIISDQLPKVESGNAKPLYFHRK

CN1c2cc3c(cc2[C@H]2CCCC[C@H]21)c(C(F)(F)F)cc(=O)n3C
IC50 (Estrogen receptor): > 10 µM
Efficacy [1]: < 20%
IC50 (Glucocorticoid receptor): > 10 µM
Efficacy [2]: < 20%

CC1(C)CCC[C@]2(C)c3cc4c(C(F)(F)F)cc(O)nc4cc3N[C@H]12
IC50 (Estrogen receptor): > 10 µM
Efficacy [1]: 31%
IC50 (Glucocorticoid receptor): 1.4 µM
Efficacy [2]: 77%

C[C@H]1CC[C@H]2Nc3cc4c(cc3[C@H]2C1)c(C(F)(F)F)cc(=O)n4C
IC50 (Estrogen receptor): > 10 µM
Efficacy [1]: < 20%
IC50 (Glucocorticoid receptor): > 10 µM
Efficacy [2]: < 20%
